# Assay results taken from patent publication US20240041042A1, “1-(PYRIDYL)-5-AZINYLPYRAZOLE DERIVATIVES, AND THEIR USE FOR CONTROL OF UNDESIRED PLANT GROWTH” (Bayer Aktiengesellschaft, priority 2020, published 2024).
# Where two headings read alike, the source gives them in different places.
# Experiments:
# Type in all cases: in vivo
# [1] = test system: Matricaria inodora (MATIN); test: Post-emergence herbicidal action against MATIN
# Summary of the method: (§1)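 Greenhouse plants sprayed at the one-leaf stage, 2–3 weeks after sowing, with WP or EC formulations plus 0.5% additive at 600 l/ha water. Activity rated visually after about 3 weeks versus untreated controls (100% = dead, 0% = like control), at 320 g/ha or lower.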
# [2] = test system: Matricaria inodora (MATIN); test: Pre-emergence herbicidal action against MATIN
# Summary of the method: (§2)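 Herbicide applied to soil before seedling emergence, at 600 l/ha spray volume with 0.5% additive and rates up to 320 g/ha. Evaluation: visual percentage effect, about 3 weeks later, greenhouse-grown pots compared with untreated ones.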
# Viola tricolor (VIOTR) [3] = test: Post-emergence herbicidal action against VIOTR
# Summary of the method: as §1
# Oryza sativa (ORYSA) = conditions: crop plant compatibility
# Summary of the method: (§3)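 Greenhouse crops in sandy loam sprayed post-emergence at the one-leaf stage, 2–3 weeks after sowing, with WP or EC formulations in water plus 0.5% additive at 600 l/ha. Damage rated visually about 3 weeks later versus untreated controls (0% = like control, 100% = dead); suffixes a–c denote different doses.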
# [4] = test system: Amaranthus retroflexus (AMARE); test: Pre-emergence herbicidal action against AMARE; conditions: visual scoring after about 3 weeks vs untreated controls
# Summary of the method: as §2
# Lolium rigidum (LOLRI) [5] = test: Pre-emergence herbicidal action against LOLRI
# Summary of the method: as §2
# [6] = test system: Amaranthus retroflexus (AMARE); test: Post-emergence herbicidal action against AMARE
# Summary of the method: as §1
# [7] = test system: Abutilon theophrasti (ABUTH); test: Post-emergence herbicidal action against ABUTH; conditions: visual rating about 3 weeks after treatment vs untreated controls (100% = plants have died, 0% = like control plants)
# Summary of the method: as §1
# [8] = test system: Echinochloa crus-galli (ECHCG); test: Pre-emergence herbicidal action against ECHCG; conditions: dosage 320 g/ha
# Summary of the method: as §2
# [9] = test system: Verconica persica (VERPE); test: Post-emergence herbicidal action against VERPE
# Summary of the method: as §1
# Setaria viridis (SETVI) [10] = test: Post-emergence herbicidal action against SETVI
# Summary of the method: as §1
# [11] = test system: Echinochloa crus-galli (ECHCG); test: Post-emergence herbicidal action against ECHCG
# Summary of the method: as §1
# [12] = test system: Polygonum convolvulus (POLCO); test: Post-emergence herbicidal action against POLCO
# Summary of the method: as §1
# Avena fatua (AVEFA) [13] = test: Post-emergence herbicidal action against AVEFA; conditions: visual rating about 3 weeks after treatment
# Summary of the method: as §1
# [14] = test system: Polygonum convolvulus (POLCO); test: Pre-emergence herbicidal action against POLCO; conditions: dosage 320 g/ha
# Summary of the method: as §2
# [15] = test system: Alopecurus myosuroides (ALOMY); test: Post-emergence herbicidal action against ALOMY; conditions: visual rating about 3 weeks after treatment vs untreated controls (100% = plants have died, 0% = like control plants)
# Summary of the method: as §1
# [16] = test system: Alopecurus myosuroides (ALOMY); test: Pre-emergence herbicidal action against ALOMY; conditions: 320 g/ha; scored visually after about 3 weeks; 100% = plants have died
# Summary of the method: as §2
# Viola tricolor (VIOTR) [17] = test: Pre-emergence herbicidal action against VIOTR
# Summary of the method: as §2
# [18] = test system: Pharbitis purpurea (PHBPU); test: Post-emergence herbicidal action against PHBPU
# Summary of the method: as §1
# Setaria viridis (SETVI) [19] = test: Pre-emergence herbicidal action against SETVI
# Summary of the method: as §2
# Lolium rigidum (LOLRI) [20] = test: Post-emergence herbicidal action against LOLRI; conditions: dosage 320 g/ha
# Summary of the method: as §1
# [21] = test system: Pharbitis purpurea (PHBPU); test: Pre-emergence herbicidal action against PHBPU
# Summary of the method: as §2
# [22] = test system: Triticum aestivum (TRZAS); conditions: pre-emergence, 80 g/ha, crop plant compatibility, in comparison to untreated controls
# Summary of the method: (§4)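 Scoring: visual, % of untreated control, about 3 weeks after a pre-emergence application to the soil surface. Application used WP or EC formulations diluted in water with 0.5% additive at 600 l/ha; dosage levels are marked by suffixes a, b and c.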
# Glycine max (GLXMA) = conditions: pre-emergence, crop plant compatibility, in comparison to untreated controls
# Summary of the method: as §4
# Avena fatua (AVEFA) [23] = test: Pre-emergence herbicidal action against AVEFA; conditions: visual scoring after about 3 weeks vs untreated controls
# Summary of the method: as §2
# Zea mays (ZEAMX) = conditions: 20 g/ha, ZEAMX, effect in comparison to untreated controls
# Summary of the method: as §3
# [24] = test system: Abutilon theophrasti (ABUTH); test: Pre-emergence herbicidal action against ABUTH; conditions: Dosage column 320 g/ha (title prints 3200 g/ha); scored visually after about 3 weeks; 100% = plants have died
# Summary of the method: as §2
# [25] = test system: Verconica persica (VERPE); test: Pre-emergence herbicidal action against VERPE; conditions: dosage 320 g/ha
# Summary of the method: as §2
# [26] = 80 g/ha, visual rating about 3 weeks after treatment vs untreated controls (100% = plants have died, 0% = like control plants)
SMILES,Post-emergence action against MATIN in % ([1]; dosage 80 g/ha) [%],Pre-emergence action against MATIN in % ([2]; dosage 80 g/ha) [%],Pre-emergence action against MATIN in % ([2]; dosage 320 g/ha) [%],Pre-emergence action against AMARE in % ([4]; 80 g/ha) [%],Pre-emergence action against AMARE in % ([4]; 320 g/ha) [%],Pre-emergence action against LOLRI in % (Lolium rigidum (LOLRI) [5]; dosage 320 g/ha) [%],"Post-emergence action against AMARE in % [6, 26] [%]",Post-emergence action against ABUTH in % ([7]; 80 g/ha) [%],Pre-emergence action against ECHCG in % [8] [%],Post-emergence action against SETVI in % (Setaria viridis (SETVI) [10]; dosage 80 g/ha) [%],Post-emergence action against ECHCG in % ([11]; dosage 80 g/ha) [%],Post-emergence action against AVEFA in % (Avena fatua (AVEFA) [13]; 80 g/ha) [%],Pre-emergence action against POLCO in % [14] [%],Post-emergence action against ALOMY in % ([15]; 80 g/ha) [%],Pre-emergence action against ALOMY [16] [%],"Pre-emergence action against VIOTR in % (Viola tricolor (VIOTR) [17]; 320 g/ha, Viola tricolor) [%]",Post-emergence action against PHBPU in % ([18]; dosage 80 g/ha) [%],Pre-emergence action against SETVI in % (Setaria viridis (SETVI) [19]; dosage 320 g/ha) [%],Pre-emergence action against PHBPU in % ([21]; dosage 80 g/ha) [%],Pre-emergence action against PHBPU in % ([21]; dosage 320 g/ha) [%],other results
COC(=O)CSc1nn(-c2ccccn2)c(-c2cncc(F)c2)c1Br [Example I-151],80,90,90,90,100,90,90,80,90,90,90,90,90,80,100,100,90,100,80,80,"Post-emergence action against MATIN in % ([1]; dosage 320 g/ha): 90%; Post-emergence action against VIOTR in % (Viola tricolor (VIOTR) [3]; 80 g/ha): 80%; Post-emergence action against VIOTR in % (Viola tricolor (VIOTR) [3]; 320 g/ha): 90%; Post-emergence action against ORYSA in % (Oryza sativa (ORYSA); 80 g/ha, effect in comparison to untreated controls): 0%; Post-emergence action against AMARE in % ([6]; 320 g/ha, visual rating about 3 weeks after treatment): 100%; Post-emergence action against ABUTH in % ([7]; 320 g/ha): 80%; Post-emergence action against VERPE in % ([9]; 320 g/ha, VERPE): 90%; Post-emergence action against SETVI in % (Setaria viridis (SETVI) [10]; dosage 320 g/ha): 90%; Post-emergence action against ECHCG in % ([11]; dosage 320 g/ha): 90%; Post-emergence action against POLCO in % ([12]; dosage 320 g/ha): 80%; Post-emergence action against AVEFA in % (Avena fatua (AVEFA) [13]; 320 g/ha): 90%; Post-emergence action against ALOMY in % ([15]; 320 g/ha): 80%; Post-emergence action against PHBPU in % ([18]; dosage 320 g/ha): 90%; Pre-emergence action against SETVI in % (Setaria viridis (SETVI) [19]; dosage 80 g/ha): 90%; Post-emergence action against LOLRI in % (Lolium rigidum (LOLRI) [20]): 90%; Pre-emergence action against TRZAS in % [22]: 10%; Pre-emergence action against GLXMA in % (Glycine max (GLXMA); 80 g/ha): 10%; Pre-emergence action against GLXMA in % (Glycine max (GLXMA); 320 g/ha): 20%"
COC(=O)CCOC(=O)COc1nn(-c2ccccn2)c(-c2cncc(F)c2)c1Br [Example I-77],90,80,90,90,100,100,80,80,100,80,90,90,90,90,90,100,90,100,80,90,"Pre-emergence action against AVEFA in % (Avena fatua (AVEFA) [23]; 80 g/ha): 80%; Pre-emergence action against AVEFA in % (Avena fatua (AVEFA) [23]; 320 g/ha): 90%; Post-emergence action against ZEAMX in % (crop plant compatibility) (Zea mays (ZEAMX)): 0%; Post-emergence action against ORYSA in % (Oryza sativa (ORYSA); 20 g/ha, effect vs untreated controls): 0%; Pre-emergence action against LOLRI in % (Lolium rigidum (LOLRI) [5]; dosage 80 g/ha): 90%; Post-emergence action against VERPE in % ([9]; dosage 80 g/ha): 90%; Pre-emergence action against ABUTH [24]: 80%; Post-emergence action against POLCO in % ([12]; dosage 80 g/ha): 80%; Pre-emergence action against VIOTR in % (Viola tricolor (VIOTR) [17]; dosage 80 g/ha): 90%; Pre-emergence action against VERPE in % [25]: 90%; Pre-emergence action against GLXMA in % (Glycine max (GLXMA); 80 g/ha): 0%"
